These are literature values, as cited in US10940128B2, “Injectable melphalan compositions comprising a cyclodextrin derivative and methods of making and using the same” (CYDEX PHARMACEUTICALS, INC., priority 2009, dated 2021).

Where two headings read alike, the source gives them in different places.

For one data set, the system named is certain animal tumors. The note with it: in vivo; cited from earlier work.
The conditions of data set [1]: cited from earlier work; for Mean (±SD) peak melphalan plasma concentrations: myeloma patients; for clearance of melphalan: repeat dosing of 0.5 mg/kg every 6 weeks.
The next data set deals with plasma proteins. Conditions: cited from earlier work.
The conditions of data set [2]: patients who have received intravenous melphalan; cited from earlier work.
The conditions of data set [3]: water (pH 7); cited from earlier work.

On to `N[C@H](Cc1ccc(N(CCCl)CCCl)cc1)C(=O)O` [medphalan], for which the “activity against certain animal tumors compared with melphalan” value in the data set with certain animal tumors is “less active”.
Consider `N[C@@H](Cc1ccc(N(CCCl)CCCl)cc1)C(=O)O` [melphalan, 4-[bis(chloroethyl)amino]phenylalanine], for which the “steady-state volume of distribution” value in data set [1] (after intravenous administration of 50 mg of melphalan) is on record as 0.5 L/kg. Besides, the “Mean (±SD) peak melphalan plasma concentrations” value in data set [1] (10 mg/m^2 dose) is 1.2 ± 0.4 µg/mL; in data set [1] (20 mg/m^2 dose) it was 2.8 ± 1.9 µg/mL. Also, the clearance of melphalan was 8.1 mL/min/kg in data set [1] (after the first course) and 5.5 mL/min/kg in data set [1] (after the third course). Further, in the data set with plasma proteins, the “extent of melphalan binding to plasma proteins” value was 60% to 90. The “drug (covalently) irreversibly bound to plasma proteins” value in the data set with plasma proteins (plasma) was “Approximately 30%”. The “share of the plasma protein binding accounted for by α1-acid glycoprotein” value with plasma proteins (plasma) is recorded as “about 20%”. The “hypersensitivity reactions, including anaphylaxis, share of patients” value in data set [2] is on record as “approximately 2%”. Besides, the solubility in water result in data set [3] is “practically insoluble”.
